T/C data for 23 compounds are collected here from PubChem BioAssay AID330 (DTP/NCI, 2004).

The test concerns P388 leukemia ip, CD2F1 mice, survival T/C. As to the kind of experiment: NCI In Vivo Anticancer Drug Screen. Data for tumor model P388 Leukemia (intraperitoneal) in CD2F1 (CDF1) mice. Conditions: endpoint: median survival time, higher = longer survival. The method in brief: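 Mice carrying the transplanted tumor received test compound or vehicle. Survival was recorded in each group, and the value is the treated-group measurement divided by that of the vehicle-treated control group.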

Setting [1] is: dose: 100.0 mg/kg/injection, schedule: Q01DX001 (ip), vehicle: saline with Tween-80.
Where [2] appears, read: dose: 50.0 mg/kg/injection, schedule: Q01DX009 (ip), vehicle: saline.
Where [3] appears, read: dose: 100.0 mg/kg/injection, schedule: Q01DX009 (ip), vehicle: saline.
Where [4] appears, read: dose: 200.0 mg/kg/injection, schedule: Q01DX009 (ip), vehicle: saline.
Setting [5] is: dose: 0.25 mg/kg/injection, schedule: Q01DX009 (ip), vehicle: saline + alcohol.
[6] abbreviates: dose: 0.5 mg/kg/injection, schedule: Q01DX009 (ip), vehicle: saline + alcohol.
[7] abbreviates: dose: 1.0 mg/kg/injection, schedule: Q01DX009 (ip), vehicle: saline + alcohol.
Setting [8] is: dose: 50.0 mg/kg/injection, schedule: Q01DX009 (ip), vehicle: saline with Tween-80.
[9] abbreviates: dose: 100.0 mg/kg/injection, schedule: Q01DX009 (ip), vehicle: saline with Tween-80.
The mark [10] stands for this setting: dose: 200.0 mg/kg/injection, schedule: Q01DX009 (ip), vehicle: saline with Tween-80.
Where [11] appears, read: dose: 50.0 mg/kg/injection, schedule: Q01DX005 (ip), vehicle: saline with Tween-80.
[12] abbreviates: dose: 100.0 mg/kg/injection, schedule: Q01DX005 (ip), vehicle: saline with Tween-80.
[13] abbreviates: dose: 200.0 mg/kg/injection, schedule: Q01DX005 (ip), vehicle: saline with Tween-80.
[14] abbreviates: dose: 200.0 mg/kg/injection, schedule: Q04DX003 (ip), vehicle: saline.

“And” between values parts separate entries of the source, which are not always exact repeats. Identical values can stand only once. Inconclusive results and toxic doses are left out.

On to `CC12CCCN1CC=C2CO` (stereo not drawn), for which the T/C by setting is: (dose: 25.0 mg/kg/injection, schedule: Q01DX001 (ip), vehicle: saline with Tween-80) 100 % of control; (dose: 50.0 mg/kg/injection, schedule: Q01DX001 (ip), vehicle: saline with Tween-80) 96 % of control; under setting [1], 100 % of control.
`NC1=C(C(=O)c2ccccc2)CCCC1`: the T/C by setting is: under setting [2], 106 % of control; under setting [3], 97 % of control; under setting [4], 97 % of control.
Take `NC(=O)c1c(-c2ccccc2)cn2c(C(=O)O)ccnc12`: the T/C runs as follows: (dose: 60.0 mg/kg/injection, schedule: Q01DX005 (ip), vehicle: saline with Tween-80) 98 % of control; (dose: 120.0 mg/kg/injection, schedule: Q01DX005 (ip), vehicle: saline with Tween-80) 98 % of control; (dose: 240.0 mg/kg/injection, schedule: Q01DX005 (ip), vehicle: saline with Tween-80) 102 % of control.
For `CC(=O)OC1CC(O)C23COC(O)C1(C)C2CC(O)C1(C)C3C(=O)C(O)C2(C)C(c3ccoc3)CC3OC321` (stereo not drawn), the T/C reads like this: (dose: 0.13 mg/kg/injection, schedule: Q01DX009 (ip), vehicle: saline + alcohol) 91 % of control; under setting [5], 93 % of control; under setting [6], 90 % of control; under setting [7], 94 % of control; (dose: 1.25 mg/kg/injection, schedule: Q01DX009 (ip), vehicle: Klucel (hydroxypropylcellulose) (HPC)) 104 % of control; (dose: 2.5 mg/kg/injection, schedule: Q01DX009 (ip), vehicle: Klucel (hydroxypropylcellulose) (HPC)) 95 % of control.
For `O=C(C=C(C(F)(F)F)C(F)(F)F)c1cccc([N+](=O)[O-])c1`, the T/C was 104 % of control (dose: 6.25 mg/kg/injection, schedule: Q04DX003 (ip), vehicle: saline with Tween-80); 104 % of control (dose: 12.5 mg/kg/injection, schedule: Q04DX003 (ip), vehicle: saline with Tween-80); 100 % of control (dose: 25.0 mg/kg/injection, schedule: Q04DX003 (ip), vehicle: saline with Tween-80).
As for `CN(C)c1ccc(C2OC2C(=O)n2ccc(=O)n(C(=O)C3OC3c3ccc(N(C)C)cc3)c2=O)cc1` (stereo not drawn), the T/C runs as follows: (dose: 100.0 mg/kg/injection, schedule: Q04DX002 (ip), vehicle: saline) 101 % of control; (dose: 200.0 mg/kg/injection, schedule: Q04DX002 (ip), vehicle: saline) 100 % of control; (dose: 400.0 mg/kg/injection, schedule: Q04DX002 (ip), vehicle: saline) 97 % of control.
On to `IC1=CC2CCC(C1)C2` (stereo not drawn), for which the T/C reads like this: (dose: 25.0 mg/kg/injection, schedule: Q01DX009 (ip), vehicle: saline with Tween-80) 100 % of control and 103 % of control; under setting [8], 104 % of control and 116 % of control and 93 % of control; under setting [9], 101 % of control and 109 % of control; under setting [10], 102 % of control and 122 % of control and 96 % of control.
For the compound `COC(=O)Cn1/c(=N\N=C(/C)c2ccc(C)cc2)sc2ccccc21`, the T/C reads like this: under setting [1], 95 % of control; (dose: 200.0 mg/kg/injection, schedule: Q01DX001 (ip), vehicle: saline with Tween-80) 91 % of control.
With `N#CCCSc1ccccc1N=Cc1ccccc1O`, the T/C is 101 % of control under setting [2], 99 % of control under setting [3] and 95 % of control under setting [4].
With `Cc1ccc(-n2c(-c3ccc(-n4c(C)nc5ccc(Br)cc5c4=O)cc3)n[nH]c2=S)cc1`, the T/C was 98 % of control (dose: 100.0 mg/kg/injection, schedule: Q04DX002 (ip), vehicle: Klucel (hydroxypropylcellulose) (HPC)); 106 % of control (dose: 200.0 mg/kg/injection, schedule: Q04DX002 (ip), vehicle: Klucel (hydroxypropylcellulose) (HPC)); 100 % of control (dose: 400.0 mg/kg/injection, schedule: Q04DX002 (ip), vehicle: Klucel (hydroxypropylcellulose) (HPC)).
In the case of `NCCN1CCc2ccccc2C1`, the T/C reads like this: (dose: 6.25 mg/kg/injection, schedule: Q04DX003 (ip), vehicle: saline) 95 % of control; (dose: 12.5 mg/kg/injection, schedule: Q04DX003 (ip), vehicle: saline) 100 % of control; (dose: 25.0 mg/kg/injection, schedule: Q04DX003 (ip), vehicle: saline) 100 % of control.
For `Cc1[nH]c(=O)[nH]c(=O)c1CCSSCCc1c(C)[nH]c(=O)[nH]c1=O`, the T/C was 102 % of control under setting [11], 100 % of control under setting [12] and 98 % of control under setting [13].
Turning to `CC12CCC3C(CCC4=CC(OC5OC(CO)C(O)C(O)C5O)CCC43C=O)C1(O)CCC2c1ccc(=O)oc1` (stereo not drawn), the T/C was 103 % of control (dose: 0.12 mg/kg/injection, schedule: Q01DX009 (ip), vehicle: saline + alcohol); 106 % of control under setting [5]; 106 % of control under setting [6]; 103 % of control under setting [7].
Consider `CCN(CC)CCNc1ccc(C)c2sc3ccccc3c(=O)c12` (tested in a mixture with another compound), for which the T/C was 160 % of control under setting [2]; 185 % of control under setting [3]; 161 % of control under setting [14]; 95 % of control (dose: 300.0 mg/kg/injection, schedule: Q04DX003 (ip), vehicle: saline).
Take `OC(CCC(O)(C(F)(F)F)C(F)(F)F)(C(F)(F)F)C(F)(F)F`: the T/C was 99 % of control (dose: 6.25 mg/kg/injection, schedule: Q01DX005 (ip), vehicle: saline); 101 % of control (dose: 12.5 mg/kg/injection, schedule: Q01DX005 (ip), vehicle: saline); 100 % of control (dose: 25.0 mg/kg/injection, schedule: Q01DX005 (ip), vehicle: saline); 103 % of control under setting [11].
Turning to `CCCn1c2nc(=O)[nH]c(=O)c-2cc2ccccc21`, the T/C (dose: 10.0 mg/kg/injection, schedule: Q01DX009 (ip), vehicle: saline with Tween-80) was 105 % of control; the T/C (dose: 20.0 mg/kg/injection, schedule: Q01DX009 (ip), vehicle: saline with Tween-80) was 103 % of control; the T/C (dose: 40.0 mg/kg/injection, schedule: Q01DX009 (ip), vehicle: saline with Tween-80) was 113 % of control.
With `CCn1c(Cl)c(/C=N\Nc2ccccc2[N+](=O)[O-])c2ccccc21`, the T/C reads like this: (dose: 12.5 mg/kg/injection, schedule: Q01DX001 (ip), vehicle: Klucel (hydroxypropylcellulose) (HPC)) 94 % of control; (dose: 25.0 mg/kg/injection, schedule: Q01DX001 (ip), vehicle: Klucel (hydroxypropylcellulose) (HPC)) 88 % of control.
For `COc1ccccc1C1NC(c2ccccc2OC)C2CCCC1C2=O` (stereo not drawn), the T/C is 88 % of control (dose: 100.0 mg/kg/injection, schedule: Q04DX003 (ip), vehicle: saline); 88 % of control under setting [14]; 90 % of control (dose: 400.0 mg/kg/injection, schedule: Q04DX003 (ip), vehicle: saline).
Consider `CCOC(=O)Cc1ccnc(C)c1`, for which the T/C under setting [8] was 90 % of control, the T/C under setting [9] was 90 % of control and the T/C under setting [10] is 100 % of control.
For `N=c1nc(-c2ccccc2)nc2[nH]c3c4cccc5cccc(c3nc12)c54`, the T/C (dose: 50.0 mg/kg/injection, schedule: Q01DX005 (ip), vehicle: Klucel + Tween-80) is 90 % of control; the T/C (dose: 100.0 mg/kg/injection, schedule: Q01DX005 (ip), vehicle: Klucel + Tween-80) was 99 % of control; the T/C (dose: 200.0 mg/kg/injection, schedule: Q01DX005 (ip), vehicle: Klucel + Tween-80) was 99 % of control.
With `COc1ccc(-n2cc[n+](C)c2/C=N\O)cc1`, the T/C reads like this: under setting [8], 97 % of control; under setting [9], 98 % of control.
For the compound `C=CCC1(C(C)C(O)c2cc(OC)c(OC)c(OC)c2)CC(OC)C=CC1=O` (stereo not drawn), the T/C reads like this: (dose: 4.0 mg/kg/injection, schedule: Q01DX009 (ip), vehicle: olive oil, sesame oil, peanut oil) 116 % of control; (dose: 8.0 mg/kg/injection, schedule: Q01DX009 (ip), vehicle: olive oil, sesame oil, peanut oil) 111 % of control; (dose: 16.0 mg/kg/injection, schedule: Q01DX009 (ip), vehicle: olive oil, sesame oil, peanut oil) 111 % of control.
As for `CC1=C2[C@H]3OC(=O)[C@@H](C)[C@@H]3CC[C@@]2(C)C=C/C1=N\O`, the T/C under setting [11] was 103 % of control, the T/C under setting [12] was 95 % of control and the T/C under setting [13] was 96 % of control.
